Read-outs that look alike come from different tables or passages of the source.
Columns and labels:
[1] = target: EGFR protein ECD (Homo sapiens, UniProt P00533); assay: Surface plasmon resonance with immobilized EGFR; format: binding; conditions: analyte 0–300 μM
[2] = reference standard; cited from earlier work
[3] = test system: epidermal growth factor receptor (EGFR); conditions: cited from earlier work

With “8-(3,5-Dimethoxyphenyl)-bis(3-p-isothio-cyanato phenyl)-BODIPY [BODIPY 10]” as the molecule, how does the “specificity of binding to EGFR ECD (sensorgrams)” value [1] read?
Its value is “nonspecific binding or weak binding”.

With CN(C)c1ccc2nc3ccc(=[N+](C)C)cc-3sc2c1 [methylene blue] as the molecule, how does the “ΦF (fluorescence quantum yield)” value [2] read?
Its value is 0.035.

With LARLLT [D4] as the molecule, how does the “affinity for EGFR” value ([3]; both in vitro and in vivo) read?
The value was “high affinity”.

Which “affinity for EGFR” value ([3]; both in vitro and in vivo) does the source give for YHWY-GYTPQNVI [GE11] here?
The value was “high affinity”.

For cyclo(K(N3)larllt), which “affinity for EGFR” value [3] is on record?
Its value is “high affinity”.

From article PMC6693348 (Journal of medicinal chemistry, 2019)
